# Patent US12156893B2, “Oral composition comprising lactic acid bacteria for regulating immune responses and methods related thereto” (The Regents of the University of California, priority 2016, dated 2024)
# Experiments:
# Format in all cases: cell-based, human
# OSCSCs = experiment: Chemotherapy-induced cell death of NK-differentiated OSCSCs; details: OSCSCs differentiated with NK supernatants
# MP2 tumors = experiment: Chemotherapy-induced cell death of MP2 tumors; details: for Cell death of NK-differentiated MP2: MP2 differentiated with NK-supernatants
# NK cells = experiment: Production of cytokines, growth factors and chemokines by NK cells treated with bacterial strains (Bio-Plex 27-plex); set-up: unit not given here
# Protocol: Different strains of probiotic bacteria were tested for their ability to induce IFN-g as well as a number of important cytokines, chemokines and growth factors (Table 1). To assess the levels of each strain used in the combination we used an activation index established in the lab for the NK cells which consisted of the use of a specific ratio of several important cytokines and chemokines that prevented auto-immunity while enhancing significant activation of NK cells under pathologic conditions. Therefore, the strains were selected to: 1) provide regulated activation of NK cells when no activation of NK cells is desired; 2) when activated by cytokines and/or cross-linking of the important receptors which occurs during functional activation of NK cells in cancer is to induce maximal activation of NK cells; and 3) provide diversity for gut microflora. These criteria allow us to use bacteria to regulate the gut mucosal immunity in such a way that we will only increase NK activation when needed during infections or malignancies. In other words when there is no need for function of NK cells bacteria will regulate NK function to not induce inflammation; however, during need which occurs under the pathological conditions NK cells are triggered to function at the maximal levels. Such coordinated regulation of NK cell function should be effective in halting unwanted inflammation while providing effective and maximal immunity during disease.
# Written informed consents, approved by UCLA Institutional Review Board (IRB), were obtained from healthy blood donors, and all procedures were approved by the UCLA-IRB. Peripheral blood was separated using Ficoll-Hypaque centrifugation, after which the white, cloudy layer, containing peripheral blood mononuclear cells (PBMC), was harvested, washed and re-suspended in RPMI 1640 (Invitrogen by Life Technologies, CA) supplemented with 10% FBS and plated on plastic tissue culture dishes. After 1-2 hours of incubation, non-adherent, human peripheral blood lymphocytes (PBL) were collected. NK cells were negatively selected and isolated from PBLs using the EasySep® Human NK cell enrichment kit purchased from Stem Cell Technologies (Vancouver, BC, Canada). Isolated NK cells were stained with anti-CD16 antibody, to measure NK cell purity using flow cytometric analysis. The isolated NK cell population was greater than 90% purity. Purified NK cells were cultured in RPMI Medium 1640 supplemented with 10% FBS (Gemini Bio-Products, CA), 1% antibiotic antimycotic, 1% sodium pyruvate, and 1% MEM non-essential amino acids (Invitrogen, Life Technologies, CA).
# Purified NK cells from healthy donors were left untreated or treated with IL-2 (1000 units/ml) or the combination of anti-CD16 mAb (3 μg/ml) and IL-2 (1000 units/ml) in the presence or absence of bacterial strains at 1:5 ratio (NK cell: bacteria) for 12-18 hours. Afterwards, the levels of cytokines, growth factors and chemokines were determined using Bio-Plex Pro Human Cytokine 27-plex Assay Kit.
# PL12 or Capan = experiment: NAC-induced cell death of well-differentiated pancreatic tumors; details: NAC added to well-differentiated PL12 or Capan
# [1] = Treatment NK (no activation), bacteria 1:5 NK cell:bacteria, 12-18 hours
# [2] = Treatment NK + IL-2 (1000 units/ml), bacteria 1:5, 12-18 hours
# [3] = Treatment NK + IL-2 + anti-CD16 mAb (3 μg/ml), bacteria 1:5, 12-18 hours
compound,measurement,setting,value
"[NH2][Pt]([NH2])([Cl])[Cl] [CDDP, Cisplatin]",Cell death of NK-differentiated OSCSCs,OSCSCs,significant susceptibility
same,Cell death of NK-differentiated MP2,MP2 tumors,significant susceptibility
CC(=O)O[C@H]1C(=O)[C@@]2(C)[C@H]([C@H](OC(=O)c3ccccc3)[C@]3(O)C[C@H](OC(=O)[C@H](O)[C@@H](NC(=O)c4ccccc4)c4ccccc4)C(C)=C1C3(C)C)[C@]1(OC(C)=O)CO[C@@H]1C[C@@H]2O [Paclitaxel],Cell death of NK-differentiated OSCSCs,OSCSCs,higher cell death
same,Cell death of NK-differentiated MP2,MP2 tumors,significant susceptibility
Streptococcus thermophilus [S. thermophilus],Eotaxin,NK cells; [1],40
same,G-CSF,NK cells; [1],149
same,GM-CSF,NK cells; [1],131
same,IFN-γ,NK cells; [1],785
same,IL-1B,NK cells; [1],1381
same,IL-1ra,NK cells; [1],229
same,IL-6,NK cells; [1],10222
same,IL-8,NK cells; [1],3326
same,IL-10,NK cells; [1],63
same,IL-12p70,NK cells; [1],515
same,IL-13,NK cells; [1],9
same,IL-17,NK cells; [1],74
same,IP-10,NK cells; [1],64
same,MCP-1,NK cells; [1],502
same,RANTES,NK cells; [1],2580
same,TNF-α,NK cells; [1],18892
same,Eotaxin,NK cells; [2],21
same,G-CSF,NK cells; [2],87
same,GM-CSF,NK cells; [2],124
same,IFN-γ,NK cells; [2],1188
same,IL-1B,NK cells; [2],390
same,IL-1ra,NK cells; [2],465
same,IL-6,NK cells; [2],1773
same,IL-8,NK cells; [2],1341
same,IL-10,NK cells; [2],17
same,IL-12p70,NK cells; [2],132
same,IL-13,NK cells; [2],9
same,IL-17,NK cells; [2],65
same,IP-10,NK cells; [2],45
same,MCP-1,NK cells; [2],169
same,RANTES,NK cells; [2],2197
same,TNF-α,NK cells; [2],2413
same,Eotaxin,NK cells; [3],29
same,G-CSF,NK cells; [3],101
same,GM-CSF,NK cells; [3],177
same,IFN-γ,NK cells; [3],2594
same,IL-1B,NK cells; [3],642
same,IL-1ra,NK cells; [3],434
same,IL-6,NK cells; [3],2475
same,IL-8,NK cells; [3],1841
same,IL-10,NK cells; [3],23
same,IL-12p70,NK cells; [3],163
same,IL-13,NK cells; [3],15
same,IL-17,NK cells; [3],57
same,IP-10,NK cells; [3],58
same,MCP-1,NK cells; [3],332
same,RANTES,NK cells; [3],2097
same,TNF-α,NK cells; [3],4917
"CC(=O)N[C@@H](CS)C(=O)O [NAC, N-acetylcysteine]",Cell death of NK-differentiated OSCSCs,OSCSCs,significantly increased Paclitaxel-mediated cell death
same,Cell death,MP2 tumors; NAC added to poorly-differentiated MP2,lower/slight effect on cell death
same,Cell death,PL12 or Capan,greater levels of cell death
Lactobacillus paracasei [L. paracasei],Eotaxin,NK cells; [1],4
same,G-CSF,NK cells; [1],106
same,GM-CSF,NK cells; [1],99
same,IFN-γ,NK cells; [1],186
same,IL-1B,NK cells; [1],320
same,IL-1ra,NK cells; [1],129
same,IL-6,NK cells; [1],3029
same,IL-8,NK cells; [1],3716
same,IL-10,NK cells; [1],70
same,IL-12p70,NK cells; [1],70
same,IL-13,NK cells; [1],8
same,IL-17,NK cells; [1],40
same,IP-10,NK cells; [1],53
same,MCP-1,NK cells; [1],506
same,RANTES,NK cells; [1],1069
same,TNF-α,NK cells; [1],3809
same,Eotaxin,NK cells; [2],27
same,G-CSF,NK cells; [2],138
same,GM-CSF,NK cells; [2],157
same,IFN-γ,NK cells; [2],2112
same,IL-1B,NK cells; [2],523
same,IL-1ra,NK cells; [2],551
same,IL-6,NK cells; [2],7285
same,IL-8,NK cells; [2],3983
same,IL-10,NK cells; [2],47
same,IL-12p70,NK cells; [2],125
same,IL-13,NK cells; [2],15
same,IL-17,NK cells; [2],63
same,IP-10,NK cells; [2],90
same,MCP-1,NK cells; [2],337
same,RANTES,NK cells; [2],6468
same,TNF-α,NK cells; [2],6776
same,Eotaxin,NK cells; [3],40
same,G-CSF,NK cells; [3],153
same,GM-CSF,NK cells; [3],215
same,IFN-γ,NK cells; [3],2145
same,IL-1B,NK cells; [3],721
same,IL-1ra,NK cells; [3],573
same,IL-6,NK cells; [3],6867
same,IL-8,NK cells; [3],6385
same,IL-10,NK cells; [3],43
same,IL-12p70,NK cells; [3],123
same,IL-13,NK cells; [3],27
same,IL-17,NK cells; [3],90
same,IP-10,NK cells; [3],92
same,MCP-1,NK cells; [3],427
same,RANTES,NK cells; [3],>22609
same,TNF-α,NK cells; [3],10128
